In the case of `CCOC(=O)c1cnc2c(c(C)nc3cc(C)nn32)c1N1CCCCC1`, the melting point is reported as 161 to 163 °C. With `C=CC1CC2=CCCCC2C2CCC3(C)C(O)CCC3C12` (configuration not stated) the melting point was 117 to 121 °C. Compound `Cc1nnnn1/C=C\SC(c1ccccc1)(c1ccccc1)c1ccccc1` has a melting point of 208 to 210 °C. With `COc1cc2c(cc1F)CCN(Nc1ccncc1)C2` the melting point was 216 to 218 °C. For `Cc1cccc2cccc(O)c12`, the melting point was 56 to 59 °C. `CCOC(=O)N1CCN(c2cn(C)c3nc(OCc4ccccn4)ccc23)C(=O)C1` showed a melting point of 143 °C. In the case of `Oc1ccc2c(c1)C13CCCCC1(Cc1ccccc1)C(C2)N(CC1CC1)CC3` (configuration not stated), the melting point is reported as over 280 °C. Work on `N#Cc1cc(Sc2ccc(Cl)c(Cl)c2)ccc1N` yielded a melting point of 126 to 128 °C. `O=C1NC(=O)C(Cc2ccc3cc(OCc4ccccc4)ccc3n2)S1` (configuration not stated) showed a melting point of 144 to 146 °C. Work on `O=C1Cc2cccc(Sc3ccccc3Cl)c2N1` yielded a melting point of 178 to 180 °C. Compound `COc1ccc(-c2ccnc3c(C(=O)c4cccs4)cnn23)c(OC)c1` has a melting point of 146 to 148 °C. With `O=c1[nH]c(Cc2ccccc2)no1` the melting point was 114 to 116 °C. Compound `COCc1cnn(-c2c(Cl)cc(C(F)(F)F)cc2Cl)n1` has a melting point of 32 to 33 °C. For `CC(=O)c1nc2ccc(C)cc2cc1O`, the melting point was 124 to 126 °C. `Cn1c(=O)n(Cc2cccnc2)c2ccccc21` showed a melting point of 90 °C. Compound `COC(=O)[C@@H]1C[C@@H](O)CN1C(=O)c1ccc(C#N)cc1` has a melting point of 101 to 102 °C. `CCCCn1nnc(-c2cccc(-c3ccnc4c(C(=O)c5cccs5)cnn34)c2)n1` showed a melting point of 90 °C. `CCc1c(-c2ccc(OCc3ccccc3)cc2)cn2cccc(OCc3ccccc3)c12` gave a melting point of 104 to 105 °C. `O=S(=O)(Nc1c(Cl)cccc1Cl)c1nc2ncccn2n1` gave a melting point of 278 to 280 °C. `CCCN(CCCc1c[nH]c2c(OC)cccc12)C1COc2c(F)ccc(C(N)=O)c2C1` (configuration not stated) showed a melting point of 158 to 164 °C. `O=S(=O)(c1ccc(C(CC2CCOCC2)c2ccc(-c3ccc(Cn4cncn4)cn3)[nH]2)cc1)C1CC1` (configuration not stated) gave a melting point of 152 to 153 °C. `COC(=O)COc1ccc(NC(=O)CO)cc1` showed a melting point of 148 to 150 °C. `CN(C)C=C(C(=O)c1ccc(Cl)cc1Cl)n1cncn1` gave a melting point of 173 °C. For `O=C(c1c[nH]c2cc(C(F)(F)F)ccc12)C(F)(F)F`, the melting point was 250 to 251 °C. Compound `C1=Cc2ccccc2C(C2CCN(C3CCCCC3)CC2)c2ccccc21` has a melting point of 162 to 164 °C. `COc1cccc(CN(C)C)c1SCc1ccccc1` showed a melting point of 69 to 70 °C. For `N#CC(=Cc1ccc(O)c(O)c1)C(N)=S`, the melting point was 213 °C. In the case of `COc1cc(C(=O)N2Cc3ccc(C(=O)NCCC(c4ccccc4)c4ccccc4)n3Cc3ccccc32)ccc1-c1ccccc1C`, the melting point is reported as 214 °C. For `COC(=O)C1=CC(=O)C(C)(c2ccccc2)O1` (configuration not stated), the melting point was 60 to 62 °C. In the case of `CCCCCCCCCC(=O)N(O)CCCCCC`, the melting point is reported as 37 °C. For `CCOC(OCC)N1CCNC1=N[N+](=O)[O-]`, the melting point was 100 to 102 °C. `CC(=O)Oc1cnccc1CCCOc1cccnc1Oc1cccc(Cl)c1` gave a melting point of 107 to 126 °C. `CCC(CC)(COc1ccc2ncnn2n1)CS(N)(=O)=O` showed a melting point of 194 to 197 °C. `O=[N+]([O-])c1ccc(Cl)c(C=Cc2nc3ccccc3s2)c1` gave a melting point of 188 to 189 °C. Compound `COc1cccc(OC)c1Cc1c(Cl)ncnc1Cl` has a melting point of 152 to 153 °C. For `CCOC(=O)C(C)(C)c1nsc2ccc(-n3c(=O)cc(C(F)(F)F)n(C)c3=O)cc12`, the melting point was 164 to 167 °C. Work on `Cn1c(=O)c2c(ncn2CCN2CC=C(c3c[nH]c4ccccc34)CC2)n(C)c1=O` yielded a melting point of 196 °C. Work on `CCOC(=O)CN1C(=O)[C@H](NC(=O)[C@H](COCc2ccccc2)NC(=O)OC(C)(C)C)CSc2ccccc21` yielded a melting point of 52 to 54 °C. `CS(=O)(=O)n1c(C#N)nc2cc3c(cc21)OC(F)(Cl)C(F)(Cl)O3` (configuration not stated) showed a melting point of 123 to 126 °C. Compound `Cc1c(O)c(=O)[nH]c2cc(Cl)ccc2c1=O` has a melting point of 277 to 279 °C. `Oc1cccc(CCN2CCCC2)c1` gave a melting point of 99 to 102 °C. With `O=C(CSc1cccs1)C12CC3CC(CC(C3)C1)C2` the melting point was 69 to 72 °C. `CS(=O)(=O)c1ccc(C2=C(c3ccccc3)C(=O)OC23CCCC3)cc1` showed a melting point of 142 to 143 °C. Compound `CC(CO)c1ccc2c(=O)c3ccccc3ccc2c1` (configuration not stated) has a melting point of 63 to 66 °C. `CCN(CC)CCCNC(=O)C(C)n1cc(-c2ccccc2)c(-c2ccccc2)n1` (configuration not stated) gave a melting point of 87 to 89 °C. In the case of `CCOC(=O)C(=O)N(O)Cc1ccc2c(c1)OCc1ccccc1C2=O`, the melting point is reported as 52 to 62 °C. In the case of `CCCCCCCCCCOc1cc(OCCCCCCCCCC)cc(C(=O)OC)c1`, the melting point is reported as 52 to 53 °C. In the case of `CS(=O)(=O)Nc1ccc(CCCC(=O)OCc2ccccc2)cc1`, the melting point is reported as 88 to 89 °C. Compound `CN(C)CCNC(=O)c1cccc(-c2cccc3cc(Cc4cc(F)cc(Cl)c4)sc23)c1` has a melting point of 126 to 127 °C. Work on `COc1ccc2oc(C(=O)c3cccnc3F)cc2c1` yielded a melting point of 130 to 134 °C. With `COc1ccc(-c2nc(CN(C)c3ccccc3)nc3cc(OC)c(OC)cc23)cc1OC` the melting point was 141 to 143 °C. `COc1ccc(Cc2nnc3c4ccccc4c(Nc4cccc(-c5nnn(C)n5)c4)nn23)cc1` showed a melting point of 262 to 264 °C. In the case of `COc1cccc(CCN2C(=O)c3c(C)c(C)c(C)c(C)c3C2(O)c2ccc(F)cc2)c1` (configuration not stated), the melting point is reported as 181 °C. `COc1cc(-c2ccccc2C)ccc1C(=O)N1Cc2ccc(C(=O)N(C)CC(O)C(O)C(O)C(O)CO)n2Cc2ccccc21` (configuration not stated) gave a melting point of 144 to 146 °C. For `OC(CCc1ccccc1)c1cnc2sc3ccccc3n12` (configuration not stated), the melting point was 174 to 175 °C. Compound `Cc1cc(O)cc(C)c1NC=O` has a melting point of 239 °C. `COc1ccc2nc(N)nc(C3CCN(C(=O)c4ccccc4)CC3)c2c1` gave a melting point of 172 to 173 °C. For `O=C(O)c1ccc(COc2ccc3c(c2)CCC(CCN2CCCCC2)C3)cc1` (configuration not stated), the melting point was 105 to 108 °C. `CCc1nc2c(N)nc3ccccc3c2n1CCCCS(=O)(=O)NC` gave a melting point of 190 to 191 °C. `O=C(O)CN1CCC[C@H](OCc2cc(C(F)(F)F)cc(C(F)(F)F)c2)[C@@H]1c1ccccc1` showed a melting point of 60 to 63 °C. `Cc1c(NC(=O)CC(C)(C)C)cc2c(c1C)OC(C)(C)C2(O)c1cccc(C(C)O)c1` (configuration not stated) showed a melting point of 206 to 207 °C. `O=C1CSCN1CC#CCN1CCC(n2c(=O)[nH]c3ccccc32)CC1` gave a melting point of 202 to 204 °C. `CCC(Oc1ncn(-c2ccc(Cl)c(Cl)c2)n1)C(=O)O` (configuration not stated) showed a melting point of 232 to 234 °C. `COc1ccc(Cc2ccc(C#N)cc2)cc1` gave a melting point of 41.5 to 43.5 °C. Compound `O=C(O)CCC(=O)N1CCN(c2ccncc2)CC1` has a melting point of 261 to 263 °C. `Nc1cc(-c2ccccn2)c[nH]c1=O` gave a melting point of 259 to 262 °C. Work on `Cc1cc(CCCCCCCOc2ccc(C3=NCCN3)cc2)on1` yielded a melting point of 118 to 119 °C. `COc1ccc2nc3[nH]c(=O)[nH]c3cc2c1` gave a melting point of over 360 °C. `CCON=C(CC)C1=C(O)CC(c2ccc(Oc3ccc(S(C)(=O)=O)cc3)cc2)CC1=O` (configuration not stated) showed a melting point of 155 to 157 °C. `C[C@@H](NC(=O)c1csc(-c2cccnc2)n1)[C@](O)(Cn1cncn1)c1ccc(F)cc1F` showed a melting point of 182 to 183 °C. Work on `CO[C@]1(c2cccc(OCc3ccc4c(ccc(=O)n4C)c3)c2)CCO[C@@H](C)C1` yielded a melting point of 88 to 90 °C. Work on `COCCNC(=O)c1c(O)c2cnc(-c3ccccc3)nc2n(CCOC)c1=O` yielded a melting point of 150 to 154 °C. `C#CC1(O)C=CC2C3CCC4=CC(=O)CCC4(C)C3CCC21C` (configuration not stated) showed a melting point of 206 °C. With `Cn1c([N+](=O)[O-])cnc1COc1ccc(SC#N)cc1` the melting point was 140 °C. Work on `NC(=O)CC1=C(n2nc(-c3c(-c4ccccc4)nn4ccccc34)ccc2=O)CCCC1` yielded a melting point of 204 to 205 °C. With `COC(=O)c1ccc(C(=O)NS(=O)(=O)c2ccc(C(=O)NCCCc3ccccc3)cc2)cn1` the melting point was 240 to 242 °C. With `COc1ccc(-c2cc(C3CCCCC3)sc2-c2ccc(OC)cc2)cc1` the melting point was 95 to 98 °C. `CCCCc1nc(SC)c(C(=O)OCC)n1Cc1ccc(-c2nc3ccccn3c2C#N)cc1` gave a melting point of 168 °C. Work on `CC(=O)C1(C)CCCS1(=O)=O` (configuration not stated) yielded a melting point of 47 to 48 °C. For `CC(=O)N=C(N(C)C(C)=O)N(C)C1CCN(c2nc3ccccc3n2Cc2ccc(F)cc2)CC1`, the melting point was 176 °C. Compound `CC(C)(C)OC(=O)Nc1ccc(-c2ccc(F)cc2)cc1NC(=O)CC(=O)c1sccc1C#N` has a melting point of 156 to 157 °C. `COc1ccc(Cl)cc1C(=O)NCCc1ccc(C=C(C)C(=O)O)cc1` showed a melting point of 188 to 191 °C. `COc1ccc(OC)c(C#N)c1C#N` gave a melting point of 276 to 280 °C. Compound `CC(=O)c1ccc(C=Cc2ccc(C(C)=O)s2)s1` has a melting point of 248 °C. Work on `O=C(c1cn(-c2cccc(-c3ccccc3)c2)cn1)n1cccn1` yielded a melting point of 124 to 127 °C. `CCOC(=O)NNC(=O)Cl` gave a melting point of 77 to 80 °C. Compound `CNC(=O)C1(CCCCCCCCCCCCC2(C(=O)NS(C)(=O)=O)CC2)CC1` has a melting point of 111 to 112 °C. `CC(=O)On1cc(-c2ccccc2)c(=O)c(-c2cccc(C(F)(F)F)c2)c1` showed a melting point of 232 to 235 °C. For `CCOC(=O)Cn1c(C(=O)NCc2nnc(C)n2-c2sc(CC)cc2C(=O)c2ccccc2Cl)cc2cc(F)ccc21`, the melting point was 125 to 127 °C. Work on `Cc1nnsc1C(=O)Nc1ccc(-n2nc(C(F)(F)F)cc2C#N)cc1` yielded a melting point of 193 to 195 °C. Work on `CN1CCC(c2cnc3ccc(C(=O)Nc4ccc(F)cc4)[nH]c2-3)CC1` yielded a melting point of 114 to 116 °C. For `Cc1cc(=O)oc2cc(S)ccc12`, the melting point was 136 °C. Compound `CN1CCNCC(NC(=O)c2n[nH]c3ccccc23)C1` (configuration not stated) has a melting point of 163 to 166 °C. `Cn1cccc1S(=O)(=O)NC(C)(C)C` showed a melting point of 125 to 126 °C. `O=C1Nc2ccccc2C12CCNCC2` gave a melting point of 184 to 186 °C. `COc1ccc(C2(c3ccc(OC)cc3)CCN(C[C@@H]3C=C4c5cccc6[nH]c(Cl)c(c56)C[C@H]4N(C)C3)CC2)cc1` gave a melting point of over 204 °C. For `CCCCCS(=O)(=O)NC(=O)/C=C/c1cc(OCCCC)nn1Cc1ccc(C(F)(F)F)cc1Cl`, the melting point was 130 to 132 °C. `Cc1c2n(c3ccccc13)CCC2O` (configuration not stated) gave a melting point of 118 to 120 °C. Compound `OC1CSC(Oc2cccnc2F)C(O)C1O` (configuration not stated) has a melting point of 85 to 87 °C. `O=c1c2nc(Br)n(Cc3ccccc3)c2ncn1Cc1ccccc1` gave a melting point of 161 to 162 °C. Work on `O=S(=O)(Oc1ccc(-c2cc3ccc(OS(=O)(=O)c4ccccc4)cc3s2)cc1)c1ccccc1` yielded a melting point of 138 to 139 °C. `Cc1c(/C=C/C(=O)c2ccccc2)ncn1C(c1ccccc1)(c1ccccc1)c1ccccc1` gave a melting point of 209 to 211 °C.

Source: a melting point compilation (Tetko et al.; mined from patent text by program, amines drawn as free bases though some values may be those of a salt)
